# Test results taken from patent publication US20200016088A1, “NANOFORMULATIONS OF NEUROPEPTIDES AND METHOD OF MAKING SAME” (THE CORPORATION OF MERCER UNIVERSITY, priority 2018, published 2020).
# How the values were obtained:
# BEND3 cells = experiment: BBB transport across BEND3 cell barrier in Ussing chamber; assay type: in vitro ADME, mouse; conditions: 1, 2, 3 and 4 hours
# Description: To generate a cellular model of the BBB, BEND3 cells were obtained from American Type Culture Collection (ATCC: 2299). BEND3 cells are endothelial cells that form tight barriers through the formation of transcellular tight junctions (Montesano et al. 1990; Sikorski et al. 1993; Williams et al. 1988), and these barriers mimic the barrier properties of the BBB (He et al. 2010; Watanabe et al. 2013). Their endothelial nature has been confirmed by the expression of von Willebrand factor and the uptake of fluorescently labeled low density lipoprotein. BEND3 cells were cultured in Dulbecco's Modified Eagle Medium (DMEM) supplemented with 15% FBS and 1% (100 U/ml Penicillin and 100 μg/ml Streptomycin). […]
# To study the transport of nanoparticle formulations across the BEND3 BBB model barrier, a complete Ussing chamber system with a multichannel voltage-current clamp and the EasyMount Ussing chambers (Model VCC MC8; P2300; Physiologic Instruments Inc.; San Diego, Calif.) was used. […] To subtract the background resistance, a blank cell-culture insert was placed onto the slider and used to compensate for any fluid or blank membrane resistance by dialing off any reading to zero. […] Before the start of the experiment, all cell barrier preparations were evaluated for resistance properties and current flow using the acquire and analyze software. […]
# [1] = in vivo; cited from earlier work
# [2] = within one hour of intranasal delivery (Leng and Ludwig 2016); cited from earlier work
# [3] = OT in CSF and plasma by ELISA after intranasal administration; assay type: in vivo, Swiss-Webster mice; conditions: 2 hours after intranasal administration, 50 ug OT
# Description: On sample collection days, animals were administered a 50 μl solution of OT alone or encapsulated in nanoparticles (containing 50 ug of OT) intranasally and placed in separate cages for 120 minutes.
# CSF samples were collected from the cisterna magna as previously published by (Liu and Duff 2008) with little modifications. Briefly, the mice were anaesthetized with isoflurane and maintained under anesthesia at a flow rate of 1.5 ml/min during the surgical process. The mice were then placed prone in the stereotaxic instrument in direct contact with a heating pad with their heads firmly secured. The skin on the head and neck was shaved and the surgical site wiped with 10% povidone iodine followed by 70% ethanol. An incision was made and the muscles under the skin separated by blunt dissection under a dissecting microscope until the dura of the cisterna magna were exposed (a glistening white reverse triangle). The mice were then repositioned so the head formed a near 135° angle to the body. […]
# All collected CSF and Plasma samples were treated identically and assayed at the same time with the same batch of reagents. […] The optical density was read immediately at 405 nm with correction at 570 nm using BioTek HT synergy spectrophotometer at 540 nm (Model S1AFR BioTek; Winooski, Vt.). The mean optical density of the blank wells was subtracted from all readings.
# [4] = test system: macrophage (RAW 246.7) cell line; experiment: Cytotoxicity by MTT assay; assay type: cell-based; conditions: relative to negative control
# Description: (See Examples 10 through 16 hereinbelow). As confirmed in past research, the nanoparticle formulations have shown to be both safe and non-toxic in non-human primates. In primates, all parameters related to liver toxicity (such as SGOT, SGPT) and kidney toxicity (such as serum creatinine, […]) were normal after repeated nanoparticulate administrations when compared to the control group. […] For confirmation of a potential innate inflammatory response, nitric oxide assays are an important tool. For the assay, dendritic cells are plated in a well plate and exposed to the formulation. After 16 hours, using reagents, a stronger color change indicates a higher production of nitric oxide by these antigen-presenting cells in response to the formulation's antigenicity. […] This indicates minimal if not negligible immunogenicity of the formulation. […] Likewise, cytotoxicity of blank nanoparticles was assessed by MTT (3-(4,5-Dimethylthiazol-2-yl)-2,5-diphenyltetrazolium bromide) assay in a macrophage (RAW 246.7) cell line.
# The cytotoxicity of blank and peptide loaded nanoparticles was assessed by the MTT (3-(4,5-Dimethylthiazol-2-yl)-2,5-diphenyltetrazolium bromide) assay. […] Absorbance in each well was measured at 570 nm in a microtiter plate reader. The formation of a colored product quantified by measuring absorbance can be correlated to the percentage of living cells.
molecule,measurement,setting,value
Cc1cc(-c2ccc(/N=N/c3c(S(=O)(=O)O)cc4cc(S(=O)(=O)O)cc(N)c4c3O)c(C)c2)ccc1/N=N/c1c(S(=O)(=O)O)cc2cc(S(=O)(=O)O)cc(N)c2c1O [trypan blue],"transport across the barrier, presence versus absence of the cell barrier",BEND3 cells,significant reduction
"CC[C@H](C)[C@@H]1NC(=O)[C@H](Cc2ccc(O)cc2)NC(=O)[C@@H](N)CSSC[C@@H](C(=O)N2CCC[C@H]2C(=O)N[C@@H](CC(C)C)C(=O)NCC(N)=O)NC(=O)[C@H](CC(N)=O)NC(=O)[C@H](CCC(N)=O)NC1=O [OT, oxytocin]",half-life in the blood,[1],on the order of minutes
same,calculated maximum transfer of a dose to the brain,[2],0.005%
same,proportion of OT in CSF versus the total in CSF plus plasma,[3],4.2%
benzalkonium chloride,cell viability,[4]; after 24 hours,21.44%
same,cell viability,[4]; after 48 hours,20.089%
